Data as given in patent US20220280468A1, “METHOD FOR PREVENTING OCCURRENCE OF CARDIOVASCULAR EVENT IN MULTIPLE RISK PATIENT” (MOCHIDA PHARMACEUTICAL CO., LTD., priority 2006, published 2022).

Columns and labels:
[1] = tested on: cardiovascular events in hypercholesterolemia patients; experiment: JELIS partial analysis: occurrence of cardiovascular events in primary prevention hypercholesterolemia patients by risk factors; assay type: in vivo, human; details: for Incidence in the EPA-E group (cases of occurrence/all cases) / Incidence in the EPA-E group (%): with HMG-CoA RI base drug; for Rate of suppression of cardiovascular event occurrence after correcting the dispersion between groups: end of trial
Excerpt: This trial corresponds to a partial analysis of the results obtained in JELIS (Japan EPA Lipid Intervention Study) which is a large scale clinical trial of high purity EPA preparation which was presented in The […] 2005 Annual Meeting (for general information on JELIS, see Medical Tribune, issue of Nov. 17, 2005, Feature article 3, pp. 75-76).
More specifically, for the EPA-E group (7503 cases) and the control group (7478 cases) evaluated for the primary prevention effect in the 18,645 subject patients of the JELIS trial (EPA-E group (9,326 cases) and control group (9,319 cases)), occurrence of the cardiovascular events was observed and analysed for 5 years from the start of the administration in relation to the number of risk factors at the registration as defined by the following (1) to (4): • (1) obesity: body mass index (BMI) of at least 25; • (2) hypertension or prehypertension: systolic blood pressure (SBP) of at least 140 mmHg or diastolic blood pressure (DBP) of at least 90 mmHg; • (3) diabetes, prediabetes, or abnormal glucose tolerance: fasting blood glucose (FBS) of at least 126 mg/dL or hemoglobin Alc (HbAlc) of at least 6.5%; • (4) hypertriglyceridemia or low HDL cholesterolemia: a triglyceride (TG) of at least 150 mg/dL or a HDL-C of less than 40 mg/dL.
The EPA-E group was orally administered with Epadel (Mochida Pharmaceutical Co., Ltd.) typically at an adult dose of 600 mg per administration and 3 times a day after the meal. However, in the case of abnormal serum TG, the dose could be increased to 900 mg per administration and 3 times a day. In both groups, pravastatin sodium (Mevalotin™ tablets and fine granules, Daiichi Sankyo Co., Ltd.), simvastatin (Lipovas™ tablets, Banyu Pharmaceutical Co., Ltd.), or atorvastatin calcium hydrate (Lipitor™ tablets, Astellas Pharma Inc. and Pfizer Inc.) was used for the base drug, and these drugs were orally administered according to the prescribed dosage regimen. More specifically, pravastatin sodium was orally administered at a daily dose of 10 to 20 mg in a single dose or two divided doses; simvastatin was orally administered at a daily dose of 5 to 20 mg in a single dose; atorvastatin calcium hydrate was orally administered at a daily dose of 10 to 40 mg in a single dose.
The number of occurrence of cardiovascular events in the observation period of 5 years, incidence (%), and rate of suppression of the incidence of the cardiovascular events in the EPA-E group with respect to the control group are shown in Table 1 for each number of risk factors. The rate of suppression of the incidence of the cardiovascular events was calculated by the formula: [{(incidence in the control group)−(incidence in the EPA-E group)}/incidence in the control group]×100.
From the results of the trial as described above, the number of occurrence of cardiovascular events in the observation period of 5 years, incidence (%), and rate of suppression of the incidence of the cardiovascular events in the EPA-E group with respect to the control group were calculated for the male patients having at least two risk factors. (The calculation was conducted by the same procedure as described above.)
(The calculation was conducted by the same procedure as described above.)

[2] = tested on: cardiac events and serum lipids in hyperlipidemia patients; details: cited from earlier work
[3] = 1-2 risk factors, 5 years observation
[4] = 1-3 risk factors, 5 years observation
[5] = 1-4 risk factors, 5 years observation
[6] = 1 risk factor, 5 years observation
[7] = 2-3 risk factors, 5 years observation
[8] = 2-4 risk factors, 5 years observation
[9] = 2 risk factors, 5 years observation
[10] = 3-4 risk factors, 5 years observation
[11] = 3 risk factors, 5 years observation
[12] = TG of at least 150 mg/dL and HDL-C of less than 40 mg/dL
[13] = male patients with two or more risk factors
[14] = male patients, 2-4 risk factors, 5 years observation
[15] = patients with TG of at least 150 mg/dL and HDL-C of less than 40 mg/dL, 5 years
[16] = EPA-E group (with HMG-CoA RI), Non-Patent Document 3

For `CC/C=C\C/C=C\C/C=C\C/C=C\C/C=C\CCCC(=O)OCC` [EPA-E, ethyl icosapentate], the “Rate of Suppression of cardiovascular event incidence vs control group” value (“Rate of Suppression … vs control group” for short) ([1]; 0 risk factors, 5 years) was 22%, the “Incidence in the EPA-E group (cases of occurrence/all cases)” value ([1]; 0 risk factors, 5 years observation) was 11/1326 and the “Rate of Suppression … vs control group” value ([1]; 1-2 risk factors, 5 years) was 21%. For the same compound, the “Incidence in the EPA-E group (%)” value [1, 3] was “(1.3) %”, the “Incidence in the EPA-E group (cases of occurrence/all cases)” value [1, 3] was 59/4706 and the “Rate of Suppression … vs control group” value ([1]; 1-3 risk factors, 5 years) was 18%. For the same compound, the “Incidence in the EPA-E group (%)” value [1, 4] was “(1.5) %”, the “Incidence in the EPA-E group (cases of occurrence/all cases)” value [1, 4] was 87/5935 and the “Rate of Suppression … vs control group” value ([1]; 1-4 risk factors, 5 years) was 18%. For the same compound, the “Incidence in the EPA-E group (%)” value [1, 5] was “(1.5) %”, the “Incidence in the EPA-E group (cases of occurrence/all cases)” value [1, 5] was 93/6177 and the “Rate of Suppression … vs control group” value ([1]; 1 risk factor, 5 years) was 15%. For the same compound, the “Incidence in the EPA-E group (%)” value [1, 6] was “(1.0) %”, the “Incidence in the EPA-E group (cases of occurrence/all cases)” value [1, 6] was 25/2468 and the “Rate of Suppression … vs control group” value ([1]; 2-3 risk factors, 5 years) was 16%. The “Incidence in the EPA-E group (%)” value [1, 7] was “(1.8) %”, the “Incidence in the EPA-E group (cases of occurrence/all cases)” value [1, 7] was 62/3467 and the “Rate of Suppression … vs control group” value ([1]; 2-4 risk factors, 5 years) was 18%. For the same compound, the “Incidence in the EPA-E group (%)” value [1, 8] was “(1.8) %”, the “Incidence in the EPA-E group (cases of occurrence/all cases)” value [1, 8] was 68/3709 and the “Rate of Suppression … vs control group” value ([1]; 2 risk factors, 5 years) was 23%. For the same compound, the “Incidence in the EPA-E group (%)” value [1, 9] was “(1.5) %”, the “Incidence in the EPA-E group (cases of occurrence/all cases)” value [1, 9] was 34/2238 and the “Rate of Suppression … vs control group” value ([1]; 3-4 risk factors, 5 years) was 14%. The “Incidence in the EPA-E group (%)” value [1, 10] was “(2.3) %”, the “Incidence in the EPA-E group (cases of occurrence/all cases)” value [1, 10] was 34/1471 and the “Rate of Suppression … vs control group” value ([1]; 3 risk factors, 5 years) was 5%. The “Incidence in the EPA-E group (%)” value [1, 11] was “(2.3) %”, the “Incidence in the EPA-E group (cases of occurrence/all cases)” value [1, 11] was 28/1229 and the “Rate of Suppression … vs control group” value ([1]; 4 risk factors, 5 years) was 40%. For the same compound, the “Incidence in the EPA-E group (cases of occurrence/all cases)” value ([1]; 4 risk factors, 5 years observation) was 6/242, the “Effect on occurrence of cardiovascular events (in words)” value [1, 12] was “significantly suppressed occurrence of cardiovascular events” and the “Occurrence of fatal events in the EPA-E group” value [1, 12] was “occurrence of fatal events was not found”. For the same compound, the “Time from start of administration after which decrease in cardiovascular event incidence was significant” value [1, 12] was at least 2 years, the “Rate of suppression of cardiovascular event occurrence after correcting the dispersion between groups” value ([1]; TG of at least 150 mg/dL and HDL-C of less than 40 mg/dL, FIG. 2) was 53% and the “Effect on occurrence of cardiovascular events (in words)” value [1, 13] was “significantly suppressed the occurrence of cardiovascular events”. For the same compound, the “Time from start of administration after which decrease in cardiovascular event incidence was significant” value [1, 13] was at least 2 years, the “Rate of suppression of cardiovascular event occurrence after correcting the dispersion between groups” value ([1]; male patients with two or more risk factors, FIG. 1) was 55% and the “Incidence in the EPA-E group (%)” value [1, 14] was “(1.8) %”. For the same compound, the “Incidence in the EPA-E group (cases of occurrence/all cases)” value [1, 14] was 19/1065, the “Rate of Suppression … vs control group” value ([1]; male patients, 2-4 risk factors, 5 years, uncorrected) was 56% and the “Suppression of occurrence of cardiovascular events vs control group” value ([1]; patients with HDL-C of less than 40 mg/dL, uncorrected) was 35%. The “Rate of Suppression … vs control group” value ([1]; patients with TG of at least 150 mg/dL and HDL-C of less than 40 mg/dL, 5 years, uncorrected) was 48%, the “Incidence in the EPA-E group (%)” value [1, 15] was “(2.3) %” and the “Incidence in the EPA-E group (cases of occurrence/all cases)” value [1, 15] was 11/482. The “Suppression of occurrence of cardiovascular events vs control group” value ([1]; patients with triglyceride of at least 150 mg/dL, uncorrected) was 15%, the “Change of HDL-cholesterol value” ([2]; EPA-E group (with HMG-CoA RI), Non-Patent Document 2) was “slight” and the “Change in HDL-C” value [2, 16] was “little change”. For the same compound, the “Decrease of LDL-cholesterol” value [2, 16] was 25%, the “Decrease of total cholesterol” value [2, 16] was 19% and the “Reduction of LDL-cholesterol value” ([2]; EPA-E group (with HMG-CoA RI), after 5 years, Non-Patent Document 2) was 26%. For the same compound, the Decrease of triglyceride ([2]; EPA-E group (with HMG-CoA RI), significant, Non-Patent Document 3) was 9%, the “Incidence of events vs control group (in words)” value ([2]; analysis limited to the primary prevention patients) was “this difference was not statistically significant” and the “Suppression of cardiac events (in words)” value ([2]; total of primary and secondary prevention patients, and secondary prevention patients) was “statistically significant suppression”.
